Measurements published in patent US4032659A (priority 1975, dated 1977).
Values joined by “and” are separate entries in the source; they are usually repeats but may differ in a detail not shown here. Equal values may be shown once. Read-outs that look alike come from different tables or passages of the source.

Assays:
Herpes virus [1] = type: in vivo, mouse
Herpes virus [2] = assay: Herpes virus in eggs (chick embryo survival); type: in vivo, chicken eggs; conditions: for Deaths on day 1 / Deaths on day 2 / Deaths on day 3 / Total Deaths 4th Day / Deaths on day 4: 12 eggs
Influenza PR 8 virus = assay: Chemoprophylaxis of Influenza PR 8 virus infection in mice; type: in vivo, mouse
[3] = tested on: Influenza B Massachusetts virus; assay: Chemoprophylaxis of Influenza B Massachusetts virus infection in mice; type: in vivo, mouse; conditions: oral
Protocol: The activity of four compounds on Influenza B Mass. was tested in mice.
A portion of a commercially available sample of amantadine was recrystallized from isopropanol. The activity of the material against Influenza B Mass. was tested for the sample as obtained, the recrystallized portion, and the mother liquor obtained from recrystallizing the portion.

Vaccinia virus = type: in vivo; conditions: scarified rabbit skin
virus infections = assay: Antiviral screening program, several viruses; conditions: mouse, in vivo
[4] = tested on: Influenza Ann Arbor virus; assay: Chemoprophylaxis of Influenza Ann Arbor (A1) virus infection in mice; type: in vivo, mouse; conditions: oral
[5] = subcutaneous, total dose .0005 μg

Structure (SMILES): CCC(C)=NNC(N)=S [2-Butanone, thiosemicarbazone, 2-butanone, thiosemicarbazone]
- No. animals surviving when 17/20 controls are dead (Herpes virus [1]; oral, total dose .000005 μg): 0
- Survivors (Herpes virus [1]; oral, total dose .000005 μg): 0
- No. animals surviving when 17/20 controls are dead (Herpes virus [1]; oral, total dose .00005 μg): 4
- No. animals surviving when 17/20 controls are dead (Herpes virus [1]; oral, total dose .0005 μg): 5
- Survivors (Herpes virus [1]; oral, total dose .0005 μg): 4
- No. animals surviving when 17/20 controls are dead (Herpes virus [1]; oral, total dose .05 μg): 0
- Survivors (Herpes virus [1]; oral, total dose .05 μg): 0
- No. Hatched, total (Herpes virus [2]; all doses): 5
- No. Living Longer Than Controls, total (Herpes virus [2]; all doses): 12
- Deaths on day 1 (Herpes virus [2]; dose 2 μg): 1
- Deaths on day 2 (Herpes virus [2]; dose 2 μg): 5
- Deaths on day 3 (Herpes virus [2]; dose 2 μg): 3
- Total Deaths 4th Day (Herpes virus [2]; dose 2 μg): 9
- Deaths on day 2 (Herpes virus [2]; dose 20 μg): 5
- Deaths on day 3 (Herpes virus [2]; dose 20 μg): 1
- Deaths on day 4 (Herpes virus [2]; dose 20 μg): 2
- Total Deaths 4th Day (Herpes virus [2]; dose 20 μg): 8
- Deaths on day 1 (Herpes virus [2]; dose .00005 μg): 2
- Deaths on day 2 (Herpes virus [2]; dose .00005 μg): 4
- Deaths on day 3 (Herpes virus [2]; dose .00005 μg): 5
- Total Deaths 4th Day (Herpes virus [2]; dose .00005 μg): 11
- Deaths on day 1 (Herpes virus [2]; dose .0005 μg): 1
- Deaths on day 2 (Herpes virus [2]; dose .0005 μg): 5
- Deaths on day 3 (Herpes virus [2]; dose .0005 μg): 3
- Deaths on day 4 (Herpes virus [2]; dose .0005 μg): 1
- Total Deaths 4th Day (Herpes virus [2]; dose .0005 μg): 10
- Deaths on day 1 (Herpes virus [2]; dose .005 μg): 2
- Deaths on day 2 (Herpes virus [2]; dose .005 μg): 4
- Deaths on day 3 (Herpes virus [2]; dose .005 μg): 2
- Deaths on day 4 (Herpes virus [2]; dose .005 μg): 3
- Total Deaths 4th Day (Herpes virus [2]; dose .005 μg): 11
- Deaths on day 1 (Herpes virus [2]; dose .05 μg): 2
- Deaths on day 2 (Herpes virus [2]; dose .05 μg): 6
- Deaths on day 3 (Herpes virus [2]; dose .05 μg): 3
- Total Deaths 4th Day (Herpes virus [2]; dose .05 μg): 11
- Deaths on day 1 (Herpes virus [2]; dose .5 μg): 1
- Deaths on day 2 (Herpes virus [2]; dose .5 μg): 3
- Deaths on day 3 (Herpes virus [2]; dose .5 μg): 6
- Deaths on day 4 (Herpes virus [2]; dose .5 μg): 2
- Total Deaths 4th Day (Herpes virus [2]; dose .5 μg): 12
- Survivors (Influenza PR 8 virus; drinking water 24 h post-infection only, first printed value (concentration column unclear)): 0
- Survivors (Influenza PR 8 virus; drinking water 24 h pre- and 24 h post-infection, 0.5 mg/ml): 1
- No. animals surviving after 6 days (Influenza PR 8 virus; oral, total dose .000005 μg): 6
- No. animals surviving after 7 days (Influenza PR 8 virus; oral, total dose .000005 μg): 4
- No. animals surviving after 6 days (Influenza PR 8 virus; oral, total dose .00005 μg): 5
- No. animals surviving after 7 days (Influenza PR 8 virus; oral, total dose .00005 μg): 8
- No. animals surviving when 19/20 of controls are dead (Influenza PR 8 virus; oral, total dose .00005 μg): 4
- Survivors (Influenza PR 8 virus; oral, total dose .00005 μg): 4
- No. animals surviving when 19/20 of controls are dead (Influenza PR 8 virus; oral, total dose .0005 μg): 1
- Survivors (Influenza PR 8 virus; oral, total dose .0005 μg): 1
- No. animals surviving when 19/20 of controls are dead (Influenza PR 8 virus; oral, total dose .005 μg): 0
- Survivors (Influenza PR 8 virus; subcutaneous, total dose .000005 μg): 0
- Survivors (Influenza PR 8 virus; subcutaneous, total dose .00005 μg): 0
- No. animals surviving after 6 days (Influenza PR 8 virus; [5]): 1
- Survivors (Influenza PR 8 virus; [5]): 1
- Survivors (Influenza PR 8 virus; subcutaneous, total dose .005 μg): 0
- No. animals surviving after 5 days ([3]; total dose .000005 μg): 6
- No. animals surviving when 100% controls are dead ([3]; total dose .000005 μg): 3
- Survivors ([3]; total dose .000005 μg): 2
- No. animals surviving after 5 days ([3]; total dose .00005 μg): 8
- No. animals surviving when 100% controls are dead ([3]; total dose .00005 μg): 3
- Survivors ([3]; total dose .00005 μg): 2
- No. animals surviving after 5 days ([3]; total dose .0005 μg): 7
- No. animals surviving when 100% controls are dead ([3]; total dose .0005 μg): 1
- Survivors ([3]; total dose .0005 μg): 0
- No. animals surviving after 5 days ([3]; total dose .005 μg): 4
- No. animals surviving when 100% controls are dead ([3]; total dose .005 μg): 0
- Survivors ([3]; total dose .005 μg): 0
- No. animals surviving after 5 days ([3]; total dose .05 μg): 4
- No. animals surviving when 100% controls are dead ([3]; total dose .05 μg): 2
- Survivors ([3]; total dose .05 μg): 0
- No. animals surviving after 5 days ([3]; total dose .5 μg): 5
- No. animals surviving when 100% controls are dead ([3]; total dose .5 μg): 4
- Survivors ([3]; total dose .5 μg): 1
- effect on pox formation (Vaccinia virus): variable
- activity (in words) (virus infections): one of the most active compounds that has been studied to date

Structure (SMILES): NNC(=O)c1ccncc1 [Isoniazid, isoniazid, reference compound]
- No. animals surviving after 6 days (Herpes virus [1]; mouse, in vivo, po): 2 and 1
- Survivors (Herpes virus [1]; oral, total dose .0000005 μg): 1
- No. animals surviving when 17/20 controls are dead (Herpes virus [1]; oral, total dose .000005 μg): 3
- No. animals surviving after 6 days (Herpes virus [1]; oral, total dose .00005 μg): 0
- No. animals surviving when 17/20 controls are dead (Herpes virus [1]; oral, total dose .00005 μg): 3
- No. animals surviving after 6 days (Herpes virus [1]; oral, total dose .0005 μg): 3
- No. animals surviving when 17/20 controls are dead (Herpes virus [1]; oral, total dose .0005 μg): 0
- No. animals surviving when 17/20 controls are dead (Herpes virus [1]; oral, total dose .005 μg): 2
- No. animals surviving when 17/20 controls are dead (Herpes virus [1]; oral, total dose .05 μg): 1
- Survivors (Herpes virus [1]; oral, total dose .05 μg): 1
- Survivors ([4]; total dose .005 μg): 2
- Survivors ([4]; total dose .05 μg): 2 and 1
- Survivors ([4]; total dose .5 μg): 2 and 1
- No. animals surviving after 7 days (Influenza PR 8 virus; oral, total dose 5 μg): 5
- Survivors (Influenza PR 8 virus; oral, total dose 5 μg): 2
- No. animals surviving after 7 days (Influenza PR 8 virus; oral, total dose .0000005 μg): 1
- Survivors (Influenza PR 8 virus; oral, total dose .0000005 μg): 0
- No. animals surviving after 7 days (Influenza PR 8 virus; oral, total dose .000005 μg): 2
- Survivors (Influenza PR 8 virus; oral, total dose .000005 μg): 0
- No. animals surviving after 7 days (Influenza PR 8 virus; oral, total dose .00005 μg): 0
- Survivors (Influenza PR 8 virus; oral, total dose .00005 μg): 0
- No. animals surviving after 7 days (Influenza PR 8 virus; oral, total dose .0005 μg): 0
- Survivors (Influenza PR 8 virus; oral, total dose .0005 μg): 0
- No. animals surviving after 7 days (Influenza PR 8 virus; oral, total dose .005 μg): 1
- Survivors (Influenza PR 8 virus; oral, total dose .005 μg): 1
- No. animals surviving after 7 days (Influenza PR 8 virus; oral, total dose .05 μg): 2
- Survivors (Influenza PR 8 virus; oral, total dose .05 μg): 1
- No. animals surviving after 7 days (Influenza PR 8 virus; oral, total dose .5 μg): 2
- Survivors (Influenza PR 8 virus; oral, total dose .5 μg): 1
- No. animals surviving after 5 days ([3]; total dose .000005 μg): 3
- No. animals surviving when 100% controls are dead ([3]; total dose .000005 μg): 0
- Survivors ([3]; total dose .000005 μg): 0
- No. animals surviving after 5 days ([3]; total dose .00005 μg): 2
- No. animals surviving when 100% controls are dead ([3]; total dose .00005 μg): 1
- Survivors ([3]; total dose .00005 μg): 0
- No. animals surviving after 5 days ([3]; total dose .0005 μg): 3
- No. animals surviving when 100% controls are dead ([3]; total dose .0005 μg): 2
- Survivors ([3]; total dose .0005 μg): 0
- No. animals surviving after 5 days ([3]; total dose .005 μg): 5
- No. animals surviving when 100% controls are dead ([3]; total dose .005 μg): 1
- Survivors ([3]; total dose .005 μg): 0
- No. animals surviving after 5 days ([3]; total dose .05 μg): 3
- No. animals surviving when 100% controls are dead ([3]; total dose .05 μg): 1
- Survivors ([3]; total dose .05 μg): 0
- No. animals surviving after 5 days ([3]; total dose .5 μg): 3
- No. animals surviving when 100% controls are dead ([3]; total dose .5 μg): 0
- Survivors ([3]; total dose .5 μg): 0
- activity (in words) (virus infections): active against Influenza PR 8, Influenza Ann Arbor, Influenza B Mass., and Herpes virus
